Experimental data published in paper PMC12148441, “The mechanism of peptidoglycan O-acetylation in Gram-negative bacteria typifies bacterial MBOAT-SGNH acyltransferases [drawing 1]” (The Journal of Biological Chemistry, 2025).

Biological target: T1, NgPatBΔ100 (Neisseria gonorrhoeae, UniProt Q5F966)
T1 construct: gene NGO_0533; SGNH domain (Δ100, N-terminal truncation), E. coli BL21(DE3), His-SUMO tag removed by Ulp1; catalytic Ser133, His305, Asp302
Test: transacetylation of chitopentaose
Format: biochemical
Conditions: acetyl donor (1 mM acetyl-amino acids); chitopentaose acceptor; 50 mM sodium phosphate pH 7.0

T1 sequence (Q5F966 entry or part of it, stated change not applied): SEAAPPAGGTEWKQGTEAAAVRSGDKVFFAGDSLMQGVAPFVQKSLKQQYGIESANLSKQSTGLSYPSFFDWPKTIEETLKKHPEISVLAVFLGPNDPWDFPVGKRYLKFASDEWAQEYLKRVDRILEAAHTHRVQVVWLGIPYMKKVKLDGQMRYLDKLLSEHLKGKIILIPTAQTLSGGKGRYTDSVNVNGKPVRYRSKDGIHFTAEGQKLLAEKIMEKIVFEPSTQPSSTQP

SMILES: CC(=O)Oc1ccc(C[C@H](N)C(=O)O)cc1 [O-acetyl-Tyr]
- transacetylation of chitopentaose: O-acetyl-Tyr, but not O-acetyl-Ser, were sufficient for transacetylation of chitopentaose by NgPatB
